Patent US20190021380A1 (priority 2014, published 2019)
Structures can show the parent of a compound that is named as a salt. Where two headings read alike, the source gives them in different places.

What was measured:
T1R1/T1R3 receptor [1] = biological target: T1, T1R1/T1R3 receptor (Felis catus, UniProt E3UMS2); assay: Example 8: agonist screening of transmembrane compounds on T1R1/T1R3 in HEK293 cells; assay type: cell-based, cat; conditions: for agonist profile assessment: transmembrane compound alone, in words; for T1R1/T1R3 agonist: transmembrane compound tested at 0.01, 0.1 and 1 mM, HEK293 cells expressing T1R1/T1R3, calcium dye and/or luminescent reporter
Experimental: (§1) HEK293 cells that stably express T1R3 and inducibly express T1R1 were exposed to a transmembrane compound. Activation of the T1R1/T1R3 receptor was detected by a change in intracellular calcium levels using a calcium sensitive fluorescent dye and/or a luminescent reporter system. […] A FLIPR® Tetra or a FlexStation® 3 was used for data capture.
Each transmembrane compound was tested at concentrations of 0.01 mM, 0.1 mM, and 1 mM. […] To generate the dose response curves, the transmembrane compound was tested at concentrations of between 0.0001 mM and 1.0 mM in the presence of GMP and Ala.

T1R1/T1R3 receptor [2] = biological target: T1, T1R1/T1R3 receptor; assay type: cell-based; conditions: for EC50 +buffer (alone): compound alone in buffer
Text: HEK293 cells that stably express T1R3 and inducibly express T1R1 were exposed to transmembrane compounds alone or in combination with one or more amino acids and/or one or more nucleotides to activate the umami receptor. Activation of the T1R1/T1R3 receptor was detected by a change in intracellular calcium levels using a calcium sensitive fluorescent dye. Cells that express T1R3 but not T1R1 were used as a control. A FLIPR® Tetra or a FlexStation® 3 was used for data capture.
In each experiment, serial dilutions of up to 10 mM of the transmembrane compound were added to the T1R1/T1R3-expressing cells.

T1R1/T1R3 receptor [3] = biological target: T1, T1R1/T1R3 receptor; assay: Example 8: PAM screening of transmembrane compounds with GMP and Ala on T1R1/T1R3 in HEK293 cells; assay type: cell-based, cat; conditions: for PAM profile assessment: in the presence of GMP and Alanine, in words; for T1R1/T1R3 PAM: compound at 0.01, 0.1, 1 mM in combination with GMP+Ala mixtures (T1-T4), PAM if response to the combination is greater than the sum of the responses to compound alone and to GMP+Ala alone
Text: as §1, with “to” for “to a”, “compound alone or in combination with Ala and GMP to activate the umami receptor.” for “compound.”
Dose response curves were generated for each transmembrane compound at concentrations of 0 (buffer only), 0.01, 0.1 and 1 mM, wherein each of the three concentrations of transmembrane compound was tested in combination with 0.03 mM GMP+100 mM Ala (T1); 0.6 mM GMP+10 mM Ala (T2); 0.1 mM GMP+60 mM Ala (T3) and 0.3 mM GMP+60 mM Ala (T4). The T4 mixture was also tested in a 2-fold dilution series (the T4(X) Concentration). In these experiments, the first test concentration was 2× (2 times) the T4 concentration. The subsequent test concentrations were 2-fold dilutions from that (1×, 0.5× etc.). This dilution series was tested with or without the addition of the test compound at a constant 0.3 mM concentration.
Activation of the umami receptor was also determined in the presence of 1 mM GMP+100 mM Ala to generate a “maximum” umami receptor activation level.

[4] = threshold in the presence of 0.2 mM IMP, CNBD = Could not be determined
[5] = in the presence of 0.2 mM IMP, CNBD = Could not be determined

| SMILES | Thres +IMP (0.2 mM) (T1R1/T1R3 receptor [2]; [4]) | T1R1/T1R3 agonist (T1R1/T1R3 receptor [1]) | T1R1/T1R3 PAM (T1R1/T1R3 receptor [3]) | other results |
| --- | --- | --- | --- | --- |
| O=C1CC(=O)N(Cc2ccccc2)C(=O)N1Cc1ccccc1 [1,3-dibenzylpyrimidine-2,4,6(1H,3H,5H)-trione] | 0.1 mM | – | – | agonist profile assessment (T1R1/T1R3 receptor [1]): agonist activity |
| O=C(CN1C(=O)C(=O)N(Cc2ccccc2)C1=O)c1ccc(Cl)s1 [1-benzyl-3-(2-(5-chlorothiophen-2-yl)-2-oxoethyl)imidazolidine-2,4,5-trione] | – | – | – | PAM profile assessment (T1R1/T1R3 receptor [3]): PAM activity |
| COC(=O)[C@H](CC(C)C)NCc1ccccc1.Cl [Benzyl-L-leucine methyl ester hydrochloride] | – | – | – | agonist profile assessment (T1R1/T1R3 receptor [1]): agonist; PAM profile assessment (T1R1/T1R3 receptor [3]): PAM activity |
| O=C[C@H](O)[C@@H](O)[C@H](O)[C@H](O)CO [D-Glucose, reference compound] | – | – | – | EC50 +buffer (alone) (T1R1/T1R3 receptor [2]; CNBD = Could not be determined): CNBD |
| O=C(CN1C(=O)C(=O)N(Cc2ccccc2)C1=O)c1ccccc1 [Formula 1, 1-benzyl-3-(2-oxo-2-phenylethyl)imidazolidine-2,4,5-trione] | – | No | No | – |
| O=C(CN1C(=O)C(=O)N(Cc2ccccc2)C1=O)c1ccc2c(c1)CCC2 [Formula 2, 1-benzyl-3-(2-(2,3-dihydro-1H-inden-5-yl)-2-oxoethyl)imidazolidine-2,4,5-trione] | – | No | No | – |
| O=C(CN1C(=O)C(=O)N(Cc2ccccc2)C1=O)c1ccc(Br)cc1 [Formula 3, 1-benzyl-3-(2-(4-bromophenyl)-2-oxoethyl)imidazolidine-2,4,5-trione] | – | No | No | – |
| O=C(CN1C(=O)C(=O)N(Cc2ccccc2)C1=O)c1ccc2c(c1)OCCO2 [Formula 4, 1-benzyl-3-(2-(2,3-dihydrobenzo[b][1,4]dioxin-6-yl)-2-oxoethyl)imidazolidine-2,4,5-trione] | – | No | No | – |
| COc1ccc(C(=O)CN2C(=O)C(=O)N(Cc3ccccc3)C2=O)c(OC)c1 [Formula 5, 1-benzyl-3-(2-(2,4-dimethoxyphenyl)-2-oxoethyl)imidazolidine-2,4,5-trione] | – | No | No | – |
| O=C(CN1C(=O)C(=O)N(CCc2cccs2)C1=O)c1ccccc1 [Formula 6, 1-(2-oxo-2-phenylethyl)-3-(2-(thiophen-2-yl)ethyl)imidazolidine-2,4,5-trione] | – | No | No | – |
| O=C(CN1C(=O)C(=O)N(CCc2cccs2)C1=O)c1ccc2c(c1)OCO2 [Formula 7, 1-(2-(benzo[d][1,3]dioxol-5-yl)-2-oxoethyl)-3-(2-(thiophen-2-yl)ethyl)imidazolidine-2,4,5-trione] | – | No | No | – |
| O=C(CN1C(=O)C(=O)N(Cc2ccccc2)C1=O)c1ccc2c(c1)OCCCO2 [Formula 8, 1-benzyl-3-(2-(3,4-dihydro-2H-benzo[b][1,4]dioxepin-7-yl)-2-oxoethyl)imidazolidine-2,4,5-trione] | – | No | Weak PAM | PAM profile assessment (T1R1/T1R3 receptor [3]): PAM activity |
| N#Cc1cccc(NC(=O)CN2C(=O)C(=O)N(Cc3ccccc3)C2=O)c1 [Formula 9, 2-(3-benzyl-2,4,5-trioxoimidazolidin-1-yl)-N-(3-cyanophenyl)acetamide] | – | No | No | – |
| COc1ccccc1C(=O)CN1C(=O)C(=O)N(Cc2cccs2)C1=O [Formula 10, 1-(2-(2-methoxyphenyl)-2-oxoethyl)-3-(thiophen-2-ylmethyl)imidazolidine-2,4,5-trione] | – | No | No | – |
| O=C(CN1C(=O)C(=O)N(CCc2cccs2)C1=O)c1cccc2ccccc12 [Formula 11, 1-(2-(naphthalen-1-yl)-2-oxoethyl)-3-(2-(thiophen-2-yl)ethyl)imidazolidine-2,4,5-trione] | – | No | No | – |
| O=C(CN1C(=O)C(=O)N(Cc2ccccc2)C1=O)c1ccc(Cl)s1 [Formula 12, 1-benzyl-3-(2-(5-chlorothiophen-2-yl)-2-oxoethyl)imidazolidine-2,4,5-trione] | – | No | Weak PAM | – |
| O=C1C(=O)N(Cc2ccccc2)C(=S)N1Cc1ccccc1 [Formula 13, 1,3-dibenzyl-2-thioxoimidazolidine-4,5-dione] | – | No | No | – |
| CCCC(CCC)NC(=O)c1ccc2c(c1)OCO2 [Formula 14, N-(heptan-4-yl)benzo[d][1,3]dioxole-5-carboxamide] | – | Yes | Yes | – |
| COC(=O)[C@H](Cc1ccccc1)NCc1ccccc1.Cl [Formula 15, N-Benzyl-L-phenylalanine methyl ester hydrochloride] | – | Yes | Yes | – |

| SMILES | Thres +IMP (0.2 mM) (T1R1/T1R3 receptor [2]; [4]) | T1R1/T1R3 agonist (T1R1/T1R3 receptor [1]) | T1R1/T1R3 PAM (T1R1/T1R3 receptor [3]) | other results |
| --- | --- | --- | --- | --- |
| COC(=O)[C@@H](Cc1ccccc1)NCc1ccccc1.Cl [Formula 16, N-Benzyl-D-Phenylalanine methyl ester hydrochloride] | – | Yes | Yes | – |
| COC(=O)[C@H](CC(C)C)NCc1ccccc1.Cl [Formula 18, Benzyl-L-leucine methyl ester hydrochloride] | – | Yes | Yes | – |
| C[C@H](N)C(=O)O [L-Alanine, reference compound] | 3.0 mM | – | – | – |
| N[C@@H](CS)C(=O)O [L-Cysteine, cysteine] | 10.0 mM | – | – | Max resp ΔF/F +IMP (0.2 mM) (T1R1/T1R3 receptor [2]; [5]): 0.5800 ΔF/F |
| N[C@@H](Cc1c[nH]cn1)C(=O)O [L-Histidine, L-histidine] | 10.0 mM | – | – | – |
| N[C@@H](Cc1ccccc1)C(=O)O [L-Phenylalanine, reference compound] | 0.1 mM | – | – | Max resp ΔF/F +IMP (0.2 mM) (T1R1/T1R3 receptor [2]; [5]): 0.5900 ΔF/F |
| O=C(O)[C@@H]1CCCN1 [L-Proline, proline] | – | – | – | EC50 +IMP (0.2 mM) (T1R1/T1R3 receptor [2]): CNBD; Max resp % of Ala +IMP (0.2 mM) (T1R1/T1R3 receptor [2]): CNBD; Max resp ΔF/F +IMP (0.2 mM) (T1R1/T1R3 receptor [2]): CNBD; Thres +IMP (0.2 mM) (T1R1/T1R3 receptor [2]): CNBD |
| N[C@@H](CO)C(=O)O [L-Serine, serine] | 3.0 mM | – | – | – |
| N[C@@H](Cc1c[nH]c2ccccc12)C(=O)O [L-Tryptophan, tryptophan] | 0.1 mM | – | – | – |
| N[C@@H](Cc1ccc(O)cc1)C(=O)O [L-Tyrosine, tyrosine] | 3.0 mM | – | – | – |
| N[C@@H](CCC(=O)O)C(=O)[O-].[Na+] [MSG (Glutamic acid sodium salt), monosodium glutamate] | CNBD | – | – | EC50 +IMP (0.2 mM) (T1R1/T1R3 receptor [2]; [5]): CNBD; Max resp ΔF/F +IMP (0.2 mM) (T1R1/T1R3 receptor [2]; [5]): CNBD; Max resp % of Ala +IMP (0.2 mM) (T1R1/T1R3 receptor [2]; in the presence of 0.2 mM IMP, relative to Ala, CNBD = Could not be determined): CNBD |
| O=C(NCCCCNC(=O)c1cccnc1)c1cccnc1 [N,N′-(butane-1,4-diyl)dinicotinamide] | 0.1 mM | – | – | EC50 +Alanine (20 mM) (T1R1/T1R3 receptor [2]): CNBD; EC50 +buffer (alone) (T1R1/T1R3 receptor [2]; CNBD = Could not be determined): CNBD |
| O=C(NCCc1c[nH]c2ccccc12)c1cccnc1 [N-(2-(1H-indol-3-yl)ethyl)nicotinamide, N-(2-(1H-Indol-3-yl)ethyl)nicotinamide] | 0.003 mM | – | – | – |
| O=C(NCCc1ccccc1)c1ccccc1 [N-phenethylbenzamide] | 0.01 mM | – | – | Max resp ΔF/F +IMP (0.2 mM) (T1R1/T1R3 receptor [2]; [5]): 0.9800 ΔF/F |
| O=C(NCCc1ccccc1)c1ccc2c(c1)OCO2 [N-phenethylbenzo[d][1,3]dioxole-5-carboxamide] | 0.01 mM | – | – | EC50 +Alanine (20 mM) (T1R1/T1R3 receptor [2]): CNBD |
| O=C(NCCc1ccccc1)c1cccnc1 [N-phenethylnicotinamide] | 0.03 mM | – | – | – |
| C=C[C@H]1C[N@@]2CC[C@H]1C[C@H]2[C@H](O)c1ccnc2ccc(OC)cc12 [Quinine HCL, reference compound] | – | – | – | EC50 +buffer (alone) (T1R1/T1R3 receptor [2]; CNBD = Could not be determined): CNBD |
| CCOC(=O)NC(=O)C(c1ccccc1)c1ccccc1 [Ro 01-6128, reference compound] | 0.01 mM | – | – | Thres +Alanine (20 mM) (T1R1/T1R3 receptor [2]): 0.3 mM; Activity (T1R1/T1R3 receptor [2]; overall call for modulation of T1R1/T1R3: active or N/A (= Not active)): active |
